Literature values as cited in patent US9233901B2, “Synthetic navel orangeworm pheromone composition and methods relating to production of same” (Suterra LLC, priority 2008, dated 2016).

Tested on: major pheromone binding protein (AtraPBP)
Details: shown in other studies (Leal et al. 2005)

affinity for binding to a major pheromone binding protein (AtraPBP): high affinity
SMILES: CC/C=C\C=C/CCCCCCCCCC=O [HDAL, (Z, Z)-11,13-hexadecadienal]
